PMC10743905, “Design, Synthesis, and In Vitro and In Vivo Bioactivity Studies of Hydrazide–Hydrazones of 2,4-Dihydroxybenzoic Acid” (International Journal of Molecular Sciences, 2023)
≈ marks a conversion by molar mass, not a printed value. Like-named read-outs stand apart in the source and are kept apart here.

How the values were obtained:
[1] = system: Staphylococcus aureus ATCC 29213; assay: Broth microdilution MIC/MBC; type: cell-based; conditions: for MBC / MIC: ATCC29213
Source text: (§1) In vitro antimicrobial activity assays - Methodology
(§2) The examined compounds 1 - 24 were screened in vitro for antibacterial and antifungal activities using the broth microdilution method according to procedure reported earlier by our research group and European Committee on Antimicrobial Susceptibility Testing (EUCAST) and Clinical and Laboratory Standards Institute (CLSI) guidelines against a panel of reference and clinical or saprophytic strains of microorganisms, in-cluding Gram-positive bacteria, Staphylococcus aureus ATCC 43300 (Methicillin Resistant S. aureus – MRSA), Staphylococcus aureus ATCC 29213 (Methicillin Susceptible S. aureus – MSSA), Staphylococcus epidermidis ATCC 12228, Enterococcus faecalis ATCC 29212, Micro-coccus luteus ATCC 10240, Bacillus subtilis ATCC 6633 and Bacillus cereus ATCC 10876), Gram-negative bacteria (Bordetella bronchiseptica ATCC 4617, Escherichia coli ATCC 25922, Klebsiella pneumoniae ATCC 13883, Proteus mirabilis ATCC 12453, Salmonella typhimurium ATCC 14028 and Pseudomonas aeruginosa ATCC 9027) and fungi belonging to yeasts (Can-dida albicans ATCC 10231, Candida albicans ATCC 2091, Candida parapsilosis ATCC 22019, Candida glabrata ATCC 90030 and Candida krusei ATCC 14243). The microorganisms be-longing to ATCC came from American Type Culture Collection, routinely used for the evaluation of antimicrobials. […]
(§3) Samples containing examined compounds were dissolved in dimethyl sulfoxide (DMSO). […]
(§4) Subsequently, the MIC (Minimal Inhibitory Concentration) of the compounds was ex-amined by the microdilution broth method, using their two-fold dilutions in Mueller- […]
(§5) Hinton broth or (for bacteria) and RPMI 1640 broth with MOPS (for fungi) prepared in 96-well polystyrene plates. Final concentrations of the compounds ranged from 1000 to 0.488 µg/ml. Microbial suspensions were prepared in 0.85% NaCl with an optical density of 0.5 McFarland standard. Next each bacterial or fungal suspension was added per each well containing broth and various concentrations of the examined compounds. After incuba-

[2] = system: Proteus mirabilis ATCC 12453; assay: Broth microdilution MIC/MBC; type: cell-based; conditions: ATCC12453
Source text: as §1, §2, §3, §4, §5

[3] = system: Salmonella typhimurium ATCC 14028; assay: Broth microdilution MIC/MBC; type: cell-based; conditions: Salmonella enterica
Source text: as §1, §2, §3, §4, §5

[4] = system: Staphylococcus aureus ATCC 43300; assay: Broth microdilution MIC/MBC; type: cell-based; conditions: Staphylococcus aureus ATCC 43300 (MRSA)
Source text: as §1, §2, §3, §4, §5

[5] = system: Staphylococcus epidermidis ATCC 12228; assay: Broth microdilution MIC/MBC; type: cell-based; conditions: for MBC: ATCC12228; for MIC: ATCC12228, read-out: MIC
Source text: as §1, §2, §3, §4, §5

[6] = system: Micrococcus luteus ATCC 10240; assay: Broth microdilution MIC/MBC; type: cell-based; conditions: for MBC: ATCC10240; for MIC: ATCC10240, read-out: MIC
Source text: as §1, §2, §3, §4, §5

[7] = system: Pseudomonas aeruginosa ATCC 9027; assay: Broth microdilution MIC/MBC; type: cell-based; conditions: ATCC9027
Source text: as §1, §2, §3, §4, §5

[8] = system: Bacillus subtilis ATCC 6633; assay: Broth microdilution MIC/MBC; type: cell-based; conditions: for MBC: ATCC6633; for MIC: ATCC6633, read-out: MIC
Source text: Detailed procedures are presented in the Supplementary Materials. […]
as §1
as §2, with “antimicrobials. All the used microbial cultures were first subcultured on nu-trient agar or Sabouraud agar at 35°C for 18-24 h or 30°C for 24-48 h for bacteria and fungi,” for “antimicrobials.”
(§6) The surface of Mueller-Hinton agar (for bacteria) and RPMI 1640 with MOPS (for fungi) were inoculated with the suspensions of bacterial or fungal species. Microbial suspensions were prepared in sterile saline with an optical density of McFarland standard scale 0.5.
(§7) Samples containing examined compounds were dissolved in dimethyl sulfoxide (DMSO).
(§8) Furthermore, bacterial and fungal suspensions were put onto Petri dishes with solid me-dia containing 2 mg/mL of the tested compounds followed incubation at 37°C for 24h and 30°C for 48h for bacteria and fungi, respectively. The inhibition of microbial growth was judged by comparison with a control culture prepared without any sample tested. Ciprof-loxacin, vancomycin, nitrofurantoin, cefuroxime, ampicillin or nystatin (Sigma) were used as a reference antibacterial or antifungal compounds, respectively.
as §4, §5

[9] = system: Candida krusei ATCC 14243; assay: Broth microdilution MIC/MFC; type: cell-based; conditions: Pichia kudriavzevii, ATCC14243, read-out: MIC
Source text: as §1
as §2, with “antimicrobials. All the used microbial cultures were first subcultured on nu-trient agar or Sabouraud agar at 35°C for 18-24 h or 30°C for 24-48 h for bacteria and fungi,” for “antimicrobials.”
as §6, §7, §8, §4, §5

[10] = system: Candida parapsilosis ATCC 22019; assay: Broth microdilution MIC/MFC; type: cell-based; conditions: for MIC: ATCC22019, read-out: MIC
Source text: as §1
as §2, with “antimicrobials. All the used microbial cultures were first subcultured on nu-trient agar or Sabouraud agar at 35°C for 18-24 h or 30°C for 24-48 h for bacteria and fungi,” for “antimicrobials.”
as §6, §7, §8, §4, §5

[11] = system: Candida albicans ATCC 10231; assay: Broth microdilution MIC/MFC; type: cell-based; conditions: for MIC: ATCC10231, read-out: MIC
Source text: as §1
as §2, with “antimicrobials. All the used microbial cultures were first subcultured on nu-trient agar or Sabouraud agar at 35°C for 18-24 h or 30°C for 24-48 h for bacteria and fungi,” for “antimicrobials.”
as §6, §7, §8, §4, §5

[12] = system: Candida albicans ATCC 2091; assay: Broth microdilution MIC/MFC; type: cell-based; conditions: for MIC: ATCC2091, read-out: MIC
Source text: as §1
as §2, with “antimicrobials. All the used microbial cultures were first subcultured on nu-trient agar or Sabouraud agar at 35°C for 18-24 h or 30°C for 24-48 h for bacteria and fungi,” for “antimicrobials.”
as §6, §7, §8, §4, §5

[13] = system: Candida glabrata ATCC 90030; assay: Broth microdilution MIC/MFC; type: cell-based; conditions: Nakaseomyces glabratus, ATCC90030, read-out: MIC
Source text: as §1
as §2, with “antimicrobials. All the used microbial cultures were first subcultured on nu-trient agar or Sabouraud agar at 35°C for 18-24 h or 30°C for 24-48 h for bacteria and fungi,” for “antimicrobials.”
as §6, §7, §8, §4, §5

[14] = system: Enterococcus faecalis ATCC 29212; assay: Broth microdilution MIC/MBC; type: cell-based; conditions: for MBC: ATCC29212, read-out: MBC; for MIC: ATCC29212, read-out: MIC
Source text: as §1
as §2, with “antimicrobials. All the used microbial cultures were first subcultured on nu-trient agar or Sabouraud agar at 35°C for 18-24 h or 30°C for 24-48 h for bacteria and fungi,” for “antimicrobials.”
as §6, §7, §8, §4, §5

[15] = system: Bacillus cereus ATCC 10876; assay: Broth microdilution MIC/MBC; type: cell-based; conditions: for MBC: ATCC10876
Source text: as §1
as §2, with “antimicrobials. All the used microbial cultures were first subcultured on nu-trient agar or Sabouraud agar at 35°C for 18-24 h or 30°C for 24-48 h for bacteria and fungi,” for “antimicrobials.”
as §6, §7, §8, §4, §5

[16] = system: Escherichia coli ATCC 25922; assay: Broth microdilution MIC/MBC; type: cell-based; conditions: ATCC25922
Source text: as §1
as §2, with “antimicrobials. All the used microbial cultures were first subcultured on nu-trient agar or Sabouraud agar at 35°C for 18-24 h or 30°C for 24-48 h for bacteria and fungi,” for “antimicrobials.”
as §6, §7, §8, §4, §5

[17] = system: Klebsiella pneumoniae ATCC 13883; assay: Broth microdilution MIC/MBC; type: cell-based; conditions: ATCC13883
Source text: as §1
as §2, with “antimicrobials. All the used microbial cultures were first subcultured on nu-trient agar or Sabouraud agar at 35°C for 18-24 h or 30°C for 24-48 h for bacteria and fungi,” for “antimicrobials.”
as §6, §7, §8, §4, §5

[18] = system: Bordetella bronchiseptica ATCC 4617; assay: Broth microdilution MIC/MBC; type: cell-based; conditions: ATCC4617
Source text: as §1
as §2, with “antimicrobials. All the used microbial cultures were first subcultured on nu-trient agar or Sabouraud agar at 35°C for 18-24 h or 30°C for 24-48 h for bacteria and fungi,” for “antimicrobials.”
as §6, §7, §8, §4, §5

SMILES | MIC [1] [µg/mL] | MIC [2] [µg/mL] | MIC [3] [µg/mL] | MIC [4] [µg/mL] | MBC/MIC [5] | MBC [5] [µg/mL] | MIC [5] [µg/mL] | MBC/MIC [6] | MBC [6] [µg/mL] | MIC [6] [µg/mL] | MIC [7] [µg/mL] | MIC [8] [µg/mL] | melting point [°C] | MIC [9] [µg/mL] | MIC ([10]; Lodderomyces parapsilosis) [µg/mL] | MIC [11] [µg/mL] | MIC [12] [µg/mL] | MIC [13] [µg/mL] | MIC [14] [µg/mL] | MIC ([15]; ATCC10876, read-out: MIC) [µg/mL] | also measured
COc1ccc(/C=N/NC(=O)c2ccc(O)cc2O)cc1Cl [Compound 9, N-[(3-chloro-4-methoxyphenyl)methylidene]-2,4-dihydroxybenzohydrazide] | 31.2 (≈ 97.4 µM) | > 1000 | > 1000 | 15.6 (≈ 48.7 µM) | 2 | 125 (≈ 390 µM) | 62.5 (≈ 195 µM) | 4 | 500 (≈ 1560 µM) | 125 (≈ 390 µM) | > 1000 | 125 (≈ 390 µM) | 256 | > 1000 | > 1000 | > 1000 | > 1000 | > 1000 | 125 (≈ 390 µM) | 15.6 (≈ 48.7 µM) | MBC/MIC [1]: 1; MBC [1]: 31.2 µg/mL (≈ 97.4 µM); MBC [4]: 62.5 µg/mL (≈ 195 µM); MBC/MIC [4]: 4; MBC/MIC [8]: 4; MBC [8]: 500 µg/mL (≈ 1560 µM); MBC/MIC [14]: 4; MBC [14]: 500 µg/mL (≈ 1560 µM); MBC/MIC [15]: 4; MIC [15]: 15.62 µg/mL (≈ 48.7 µM); MBC [15]: 62.5 µg/mL (≈ 195 µM); MIC [16]: > 1000 µg/mL; MIC [17]: > 1000 µg/mL; MIC [18]: > 1000 µg/mL
COc1ccc(/C=N/NC(=O)c2ccc(O)cc2O)c(Br)c1O [Compound 15, N-[(2-bromo-3-hydroxy-4-methoxyphenyl)methylidene]-2,4-dihydroxybenzohydrazide] | > 1000 | > 1000 | > 1000 | > 1000 | > 1 | > 1000 | 1000 (≈ 2620 µM) | > 2 | > 1000 | 500 (≈ 1310 µM) | > 1000 | > 1000 | 244 | > 1000 | 1000 (≈ 2620 µM) | > 1000 | > 1000 | > 1000 | > 1000 | > 1000 | MFC/MIC [10]: > 1; MFC ([10]; Lodderomyces parapsilosis, ATCC22019, read-out: MFC): > 1000 µg/mL; MIC [16]: > 1000 µg/mL; MIC [17]: > 1000 µg/mL; MIC [18]: > 1000 µg/mL
COc1cc(/C=N/NC(=O)c2ccc(O)cc2O)cc(I)c1O [Compound 16, 2,4-dihydroxy-N-[(4-hydroxy-3-iodo-5-methoxyphenyl)methylidene]benzohydrazide] | 1000 (≈ 2340 µM) | > 1000 | > 1000 | > 1000 | > 1 | > 1000 | 1000 (≈ 2340 µM) | > 4 | > 1000 | 250 (≈ 584 µM) | > 1000 | 250 (≈ 584 µM) | 255 | > 1000 | > 1000 | 1000 (≈ 2340 µM) | 250 (≈ 584 µM) | > 1000 | 1000 (≈ 2340 µM) | 1000 (≈ 2340 µM) | MBC/MIC [1]: > 1; MBC [1]: > 1000 µg/mL; MBC/MIC [8]: > 4; MBC [8]: > 1000 µg/mL; MFC/MIC [11]: > 1; MFC ([11]; ATCC10231, read-out: MFC): > 1000 µg/mL; MFC/MIC [12]: > 4; MFC ([12]; ATCC2091, read-out: MFC): > 1000 µg/mL; MBC/MIC [14]: > 1; MBC [14]: > 1000 µg/mL; MBC/MIC [15]: > 1; MBC [15]: > 1000 µg/mL; MIC [16]: > 1000 µg/mL; MIC [17]: > 1000 µg/mL; MIC [18]: > 1000 µg/mL
